Laboratory results reported in patent publication US9586986B2, “Substituted 7-deazapurine ribonucleosides for therapeutic uses” (Institute of Organic Chemistry and Biochemistry ASCR, v.v.i., priority 2014, dated 2017).

What was measured:
Assay type in all cases: cell-based
[1] = tested on: CCRF-CEM; assay: Cytostatic/cytotoxic MTT assay, CCRF-CEM; conditions: Homo sapiens, 72 h incubation, read-out: MTT, IC50 CCRF-CEM
In short: (§1)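 Following 24 h stabilisation, wells received compound as four-fold serial dilutions (duplicates) and were incubated 72 h. MTT conversion (1-4 h) was quantified at 540 nm; the concentration giving 50% growth inhibition was reported.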

[2] = tested on: HCT116; assay: Cytostatic/cytotoxic MTT assay, HCT116; conditions: Homo sapiens, HCT-116; 72 h incubation; read-out: MTT, IC50 HCT116
In short: (§2)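 Human cancer lines, including daunorubicin-resistant CEM-DNR (mrp-1/mdr-1 overexpressing) and paclitaxel-resistant K562-TAX (mdr-1), seeded 25,000-30,000 cells/well, pre-incubated 24 h, then treated in duplicate with four-fold dilutions for 72 h at 37° C, 5% CO2. MTT read-out at 540 nm; IC50 from dose-response curves.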

[3] = tested on: BJ; assay: Cytostatic/cytotoxic MTT assay, BJ fibroblasts; conditions: Homo sapiens, non-malignant fibroblasts, 72 h, read-out: MTT, IC50 BJ
In short: (§3)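 72 h exposure, duplicate four-fold dilutions; MTT 1-4 h, SDS solubilisation, A540. IC50 = 50% growth inhibition from dose-response fit. MRC-5 and BJ are non-malignant human fibroblasts.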

[4] = tested on: HepG2; assay: XTT cytotoxicity assay, HepG2; conditions: Homo sapiens, HepG2; 72 h incubation; read-out: XTT, IC50 HepG2
In short: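 HepG2 cells seeded at 10,000/well, compounds added after 24 h and incubated 72 h at 37 °C, 5% CO2. Viability by XTT reduction (1 mg/mL XTT plus electron coupler), absorbance at 495 nm after 2 h; IC50 by non-linear regression.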

[5] = tested on: MRC-5; assay: Cytostatic/cytotoxic MTT assay, MRC-5 fibroblasts; conditions: Homo sapiens, MRC5; non-malignant fibroblasts, 72 h; read-out: MTT, IC50 MRC-5
In short: as §3

[6] = tested on: Huh-7 cells harboring replicon 1B; assay: Cytotoxicity in replicon 1B cells; conditions: HCV subtype 1B replicon
Method: (§4) Compounds were also tested in Huh-7 cells harboring sub-genomic reporter replicons derived from HCV subtypes 1B and 2A (ref.: Stuyver, L. J.; Whitaker, T.; McBrayer, T. R.; Hernandez-Santiago, B. I.; Lostia, S.; Tharnish, P. M.; Ramesh, M.; Chu, C. K.; Jordan, R.; Shi, J. X.; Rachakonda, S.; Watanabe, K. A.; Otto, M. J.; Schinazi, R. F. Antimicrob. Agents Chemother. 2003, 47, 244-254).

[7] = tested on: CEM-DNR-bulk; assay: Cytostatic/cytotoxic MTT assay, CEM-DNR-bulk; conditions: Homo sapiens; daunorubicin resistant subline, 72 h; read-out: MTT, IC50 CEM-DNR-bulk
In short: as §2

[8] = tested on: Huh-7 cells harboring replicon 2A; assay: Cytotoxicity in replicon 2A cells; conditions: HCV subtype 2A replicon
Method: as §4

[9] = tested on: A549; assay: Cytostatic/cytotoxic MTT assay, A549; conditions: Homo sapiens, A549; 72 h incubation; read-out: MTT, IC50 A549
In short: as §1

Row | SMILES | IC50 [1] [µM] | IC50 [2] [µM] | IC50 [3] [µM] | IC50 [4] [µM] | IC50 [5] [µM] | CC50 [6] [µM] | IC50 [7] [µM] | CC50 [8] [µM] | IC50 [9] [µM]
1 | CNc1ncnc2c1c(-c1cc3ccccc3o1)cn2[C@@H]1O[C@H](CO)[C@@H](O)[C@H]1O [Compound 3f, 5-(Benzofuran-2-yl)-4-methylamino-7-(β-D-ribofuranosyl)-7H-pyrrolo[2,3-d]pyrimidine] | > 20 | > 20 | 75.6 | > 20 | 75.3 | > 44 | > 20 | > 44 | > 20
2 | COc1ncnc2c1c(-c1ccoc1)cn2[C@@H]1O[C@H](CO)[C@@H](O)[C@H]1O [Compound 1b, 5-(Furan-3-yl)-4-methoxy-7-(β-D-ribofuranosyl)-7H-pyrrolo[2,3-d]pyrimidine] | 0.11 | 0.11 | 28.8 | 0.29 | 29.4 | > 44 | > 20 | > 44 | 1.16
